Data as given in ChEMBL document CHEMBL1201862, “PubChem BioAssay data set” (2004).
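Growth conditions: 96-well plates. Treatment: test compound, 48 hours, 5 concentrations. Analysis: linear interpolation between bracketing concentrations; unreached endpoints set to highest concentration. GI50 marks 50% less growth.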 Calls of active or inactive are those of the source. Cut-off read from the data, not from the text of the source: active = GI50 up to about 1.1 µM and inactive = higher.

Assays:
Experiment in all cases: NCI tumour cell line growth inhibition, 48 h
HCC 2998 = system: HCC 2998
NCI/ADR-RES = system: NCI/ADR-RES
IGROV-1 = system: IGROV-1
SN12C = system: SN12C
U-251 = system: U-251
Malme-3M = system: Malme-3M
SF-539 = system: SF-539
OVCAR-8 = system: OVCAR-8
HCT-15 = system: HCT-15
A549 = system: A549
RXF 393 = system: RXF 393
SK-OV-3 = system: SK-OV-3
HOP-62 = system: HOP-62
786-0 = system: 786-0
UACC-62 = system: UACC-62
UO-31 = system: UO-31
SK-MEL-2 = system: SK-MEL-2
SF-268 = system: SF-268
MDA-MB-435 = system: MDA-MB-435
HOP-92 = system: HOP-92

Row | Compound | GI50 (HCC 2998) | GI50 (NCI/ADR-RES) | GI50 (IGROV-1) | GI50 (SN12C) | GI50 (U-251) | GI50 (Malme-3M) | GI50 (SF-539) | GI50 (OVCAR-8) | GI50 (HCT-15) [µM] | GI50 (A549) | GI50 (RXF 393) | GI50 (SK-OV-3) | GI50 (HOP-62) | GI50 (786-0) | GI50 (UACC-62) | GI50 (UO-31) | GI50 (SK-MEL-2) | GI50 (SF-268) | GI50 (MDA-MB-435) | GI50 (HOP-92)
1 | S=c1ssc2c3ssc(=S)c3n(Cc3ccccc3)c12 | > 100 µM (inactive) | > 100 µM (inactive) | > 100 µM (inactive) | > 100 µM (inactive) | 60.5 µM (inactive) | > 100 µM (inactive) | 21.3 µM (inactive) | 74.8 µM (inactive) | 39.3 | > 100 µM (inactive) | 0.494 µM (active) | > 100 µM (inactive) | > 100 µM (inactive) | 37.3 µM (inactive) | 40.3 µM (inactive) | 20.3 µM (inactive) | > 100 µM (inactive) | 59.2 µM (inactive) | > 100 µM (inactive) | > 100 µM (inactive)
2 | CCOC(=O)C(C(N)=O)C1=Nc2cc([N+](=O)[O-])ccc2N/C1=C\C(=O)c1ccc(C)cc1 (stereo not given) | 23.3 µM (inactive) | 22.1 µM (inactive) | 17.4 µM (inactive) | 26.2 µM (inactive) | 15.5 µM (inactive) | 35.3 µM (inactive) | 17.1 µM (inactive) | 19 µM (inactive) | 28.8 | 26.9 µM (inactive) | 17.6 µM (inactive) | 18.3 µM (inactive) | 16.8 µM (inactive) | 13.1 µM (inactive) | 30.3 µM (inactive) | 17.6 µM (inactive) | 20.9 µM (inactive) | 15.1 µM (inactive) | 39.4 µM (inactive) | 18.1 µM (inactive)
3 | CNC(=O)N(C1=NCC(C)S1)c1ccc(C)c(C)c1 (stereo not given) | 4.28 µM (inactive) | 3.36 µM (inactive) | 8.89 µM (inactive) | 7.23 µM (inactive) | 3.59 µM (inactive) | 4.15 µM (inactive) | 2.62 µM (inactive) | 4.74 µM (inactive) | 2.77 | 6.52 µM (inactive) | 2.46 µM (inactive) | 4.28 µM (inactive) | 5.98 µM (inactive) | 4.74 µM (inactive) | 3.56 µM (inactive) | 8.26 µM (inactive) | 1.87 µM (inactive) | 4.37 µM (inactive) | 0.706 µM (active) | 5.78 µM (inactive)
4 | O=C1C2CC[C@@H]3C(=O)C(Cl)(Cl)[C@@H]3CCC2C1(Cl)Cl (stereo not given in full) | > 100 µM (inactive) | > 100 µM (inactive) | > 100 µM (inactive) | > 100 µM (inactive) | > 100 µM (inactive) | > 100 µM (inactive) | > 44.4 µM (inactive) | > 100 µM (inactive) | 98.6 | > 100 µM (inactive) | > 87.7 µM (inactive) | > 100 µM (inactive) | 3.24 µM (inactive) | > 100 µM (inactive) | > 86.9 µM (inactive) | > 100 µM (inactive) | > 100 µM (inactive) | > 100 µM (inactive) | > 100 µM (inactive) | > 100 µM (inactive)
5 | C[C@]12CC/C(=N\O)C=C1CC[C@@H]1[C@@H]2CC[C@]2(C)C(=N/O)/C(=C/c3ccncc3)C[C@@H]12 | 19.1 µM (inactive) | 21.2 µM (inactive) | 53.8 µM (inactive) | 17.3 µM (inactive) | 29.2 µM (inactive) | 37.5 µM (inactive) | 31.8 µM (inactive) | 24.6 µM (inactive) | 5.48 | 11.1 µM (inactive) | 24.3 µM (inactive) | 51.5 µM (inactive) | 41.2 µM (inactive) | 24.7 µM (inactive) | 16.4 µM (inactive) | 3.62 µM (inactive) | 15 µM (inactive) | 28.7 µM (inactive) | 21.8 µM (inactive) | 30.5 µM (inactive)
6 | O=[N+]([O-])C(/C(Cl)=C(\Cl)Br)=C(/Cl)SCc1ccccc1 | 11.2 µM (inactive) | 2.77 µM (inactive) | 5.9 µM (inactive) | 3.31 µM (inactive) | 6.46 µM (inactive) | 6.31 µM (inactive) | 8.83 µM (inactive) | 2.26 µM (inactive) | 2.9 | 16.3 µM (inactive) | 2.35 µM (inactive) | 19.6 µM (inactive) | 15.1 µM (inactive) | 2.08 µM (inactive) | 3.2 µM (inactive) | 2.52 µM (inactive) | 3.8 µM (inactive) | 2.85 µM (inactive) | 1.87 µM (inactive) | 2.31 µM (inactive)
7 | CC(=O)OC(C)c1cc2c(s1)C(=O)c1ccsc1C2=O (stereo not given) | 0.451 µM (active) | 0.271 µM (active) | 0.659 µM (active) | 0.156 µM (active) | 0.165 µM (active) | 0.102 µM (active) | 0.0528 µM (active) | 0.228 µM (active) | 0.124 | 1.37 µM (inactive) | 0.206 µM (active) | 2.07 µM (inactive) | 0.137 µM (active) | 0.286 µM (active) | 0.0811 µM (active) | 0.184 µM (active) | 0.483 µM (active) | 0.213 µM (active) | 0.0168 µM (active) | 0.372 µM (active)
